Reference: PMC7822874, “Chemoprotective antimalarials identified through quantitative high-throughput screening of Plasmodium blood and liver stage parasites” (Scientific Reports, 2021)
Like-named read-outs stand apart in the source and are kept apart here.

Test system: Plasmodium falciparum Dd2 asexual blood stage parasites
Assay: microbe, parasite or virus in culture
Design: species or system Plasmodium falciparum Dd2 in human erythrocytes; single determination (one 11-point concentration-response curve)
Conditions: Plasmodium falciparum, DD2, Erythrocyte, 72 h

SMILES | AC50 (read-out: AC50) [µM] | AC50 [µM]
CC(=O)C1=C(c2ccccc2)N(C(C)=O)n2c(nnc2C2CCCCC2)S1 [NCGC00137174-01] | 4.22 | 
Cc1ccc([S+](=O)([O-])N[C@@H]2CN(C)C[C@H]2CN(C)C)cc1F [NCGC00462728-01] | 15 | 
O=c1nc(C2CCN(S(=O)(=O)c3ccc4c(c3)OCCO4)CC2)[nH]c2c1nnn2Cc1ccc(F)cc1 [MLS001216943-01] | 8.41 | 
COc1ccc(-n2cc(CNCCCn3ccnc3)c(-c3ccccc3Cl)n2)cc1 [MLS000734282-01] | 3.35 | 
COc1cccc(NC(=O)CN(C)C(=O)c2oc3c(ccc4ccccc43)c2C)c1 [MLS001142056-01] | 0.75 | 
Cc1ccc(C(=O)Nc2cccc(NC(=O)c3ccc(C)c([N+](=O)[O-])c3)n2)cc1[N+](=O)[O-] [MLS001195117-01] |  | 15
COc1ccc(-c2nn(-c3ccc(F)cc3)c(OC(C)=O)c2-c2ccc(NC(C)=O)cc2)cc1OC [NCGC00473193-01] | 15 | 
Cc1nn(-c2ccccc2)c2c1C(O)n1c(nc3ccccc31)S2 (stereo not drawn) [MLS000081954-01] | 5.31 | 
CN1N=C2c3ccccc3CCC2C1c1ccc(F)cc1 (stereo not drawn) [MLS000861852-01] | 5.96 | 
CCOC(=O)C1(Cc2ccc(Cl)cc2)CCN(Cc2ccc(OC)cc2O)CC1 [NCGC00428386-01] | 0.188 | 
Cc1noc2c(NC3CCN(C)CC3)cc(-c3cccc(C(F)(F)F)c3)nc12 [NCGC00411487-01] | 13.7 | 
CN1N=C(C(=O)N2CCc3c([nH]c4ccccc34)C2c2ccccc2Cl)CCC1=O (stereo not drawn) [MLS000733406-01] | 5.31 | 
Cc1cccc(OC(C)C(=O)NCC2(N(C)C)CCCCC2)c1C (stereo not drawn) [NCGC00118727-01] |  | 8.41
CCc1cc(C(=O)OC)c(NC(=O)CN2CCN(C(=O)c3ccco3)CC2)s1 [MLS001034503-01] | 5.96 | 
O=C(Nc1ccccc1)c1cc2c(-c3ccccc3)nn(-c3ccccc3)c2s1 [NCGC00102084-01] | 3.35 | 
COc1cccc(C2=C(C(C)=O)Sc3nnc(C4CCCCC4)n3N2C(C)=O)c1 [NCGC00137294-01] | 4.73 | 
COc1cc2nc(NCc3ccc(C)cc3)n3nc(-c4ccccc4)nc3c2cc1OC [NCGC00112855-01] | 0.266 | 
O=C1NC2(CCN(C(=O)c3ccc(C(F)(F)F)cc3)CC2)COc2ccccc21 [NCGC00477468-01] | 8.41 | 
Cc1cccc(Oc2nc(-c3ccncc3)nc3ccccc23)c1 [MLS000769517-01] | 7.5 | 
O=C(C[C@@H]1NCCC[C@H]1O)Cn1cnc2cc(Br)c(Cl)cc2c1=O [NCGC00181132-01] | 2.37 | 
Cn1cc(CN2CCCC(COc3ccccc3C(=O)N3CCCC3)C2)c2ccccc21 (stereo not drawn) [NCGC00427140-01] | 9.44 | 
COc1ccc(-c2cc(-c3cccc(OC)c3OC)cn3cncc23)cc1 [NCGC00412191-01] | 6.85 | 
CC(=O)c1ccc(N2CCN(c3nc4c([S+](=O)([O-])c5ccccc5)nnn4c4ccc(Cl)cc34)CC2)cc1 [NCGC00112340-01] | 3.35 | 
CCOC(=O)c1cc(C)n(Cc2ccc(OCC)c(OC)c2)c1C [MLS000521227-01] | 10.6 | 
CCC(CC)c1cc([C@H]2CN3CC[C@H]2C[C@@H]3CNC(=O)c2ccc(C)cc2)nc(-c2ccncc2)n1 [NCGC00400216-01] | 10.6 | 
O=C(Nc1ccsc1C(=O)NC1CCCCC1)c1ccc(F)cc1 [MLS000546987-01] | 6.68 | 

SMILES | AC50 (read-out: AC50) [µM] | AC50 [µM]
CCOC(=O)c1nnn(-c2nonc2N)c1-c1ccc(OC)cc1 [MLS000043574-01] | 5.31 | 
Oc1ccc(Cl)cc1CNCC1CCCCC1 [MLS002207458-01] | 4.22 | 
CCn1c(=O)c2cc(C(=O)N(CC(C)C)CC(C)C)sc2c2ccccc21 [NCGC00110427-01] | 10.6 | 
COc1cccc(Nc2ccc3c(n2)C(C)(C(=O)NC2CCC2)CN(C)C3)c1 (stereo not drawn) [NCGC00414508-01] | 15.3 | 
NC(=O)c1cccc2nc([C@H]3CCN(Cc4ccccn4)C3)[nH]c12 [NCGC00396190-01] | 1.53 | 
COc1ccc2cc1Nc1ccc(cc1)C[C@H](NC(=O)c1cc3ccccc3n1C)C(=O)N(C)[C@H](C(=O)NCCC(C)C)C2 [NCGC00410275-01] | 10.6 | 
CCCCn1c(N)c(N(CC(C)C)C(=O)c2cc(-c3ccc(OC)c(OC)c3)nc3ccccc23)c(=O)[nH]c1=O [MLS001157051-01] | 11.9 | 
CCOC(=O)c1nnn(-c2nonc2N)c1-c1ccc(Br)cc1 [MLS000727795-01] | 2.66 | 
CCOc1c(Cl)cc(CNC(C)C(O)c2ccccc2)cc1OC (stereo not drawn) [MLS000679789-01] | 6.68 | 
Cc1ccc(Cl)cc1N1CCN(C(=O)c2ccc3c(c2)N(Cc2ccccc2F)C(=O)c2ccccc2[S+]3(=O)[O-])CC1 [NCGC00109582-01] | 5.31 | 
CCOC(=O)C1(c2ccccc2)CCN(CCC(C#N)(c2ccccc2)c2ccccc2)CC1 [NCGC00167963-01] | 5.31 | 
CCOc1ccccc1C(=O)N1CCN(C(=O)c2nnn3c2COC(c2ccccc2)C3)CC1 (stereo not drawn) [NCGC00449179-01] | 16.8 | 
Fc1ccc(N2CCN(Cc3cccn3-c3nnc(N4CCN(C5CCCCC5)CC4)s3)CC2)cc1 [NCGC00127052-01] | 11.9 | 
Cn1cc(C(=O)NCCN2CCN(c3cccc(Cl)c3)CC2)c2c3ccccc3n(C)c2c1=O [MLS000086993-01] | 4.73 | 
COc1cc2c(cc1OCc1ccccc1)N([S+](=O)([O-])c1cccnc1)CC21CCN(C)CC1 [NCGC00419860-01] | 10.6 | 
CCN(CC)CCC(c1ccc(N(C)C)cc1)c1c(O)cc(OC)cc1OC (stereo not drawn) [MLS000879508-01] | 3.35 | 
CCC(C)NC(=O)c1ccccc1NC(=O)C1COc2ccccc2O1 (stereo not drawn) [MLS000708698-01] | 10.6 | 
CCN1CCN(C(=O)c2c(C)nn(-c3ccc(F)cc3)c2-n2cccc2)CC1 [NCGC00125054-01] | 9.44 | 
CCCc1c(C)[nH]c2ccccc2c1=O [MLS000067721-01] | 7.5 | 
Cc1sc2c(c1C)c(=O)n(-c1cccc(C(F)(F)F)c1)c(=O)n2Cc1ccc(F)cc1 [NCGC00106130-01] | 2.11 | 
O=C(N/N=C/c1ccc(OCc2ccccc2)cc1)c1ccco1 [MLS000769970-01] | 13.3 | 
O=C(NCc1cccs1)c1nc(-c2cccc(C(F)(F)F)c2)c2cnccn12 [NCGC00476439-01] | 9.44 | 
COc1ccccc1-c1cc(C(=O)N2CCN(S(=O)(=O)c3ccc(C)cc3)CC2)[nH]n1 [MLS000924750-01] | 7.5 | 
Cc1ccc(CNC(=O)c2ccc(N3CCC4(CC3)CC(c3cccc(Br)c3)=NO4)c(NC(=O)c3ccco3)c2)cc1 [MLS001074407-01] | 8.41 | 
CCCCC(O)(c1ccc(F)cc1)C(CN1CCOCC1)c1ccc(Cl)cc1 (stereo not drawn) [MLS001200342-01] | 5.96 | 
Cc1ccc(-c2nnc(Nc3ccc(OCC(N)=O)cc3)c3ccccc23)cc1[S+](=O)([O-])NCC1CCCO1 (stereo not drawn) [NCGC00100178-01] | 4.73 | 

SMILES | AC50 (read-out: AC50) [µM] | AC50 [µM]
CCC1(N2CCN(C)CC2)CCN([S+](=O)([O-])c2ccccc2)C1 (stereo not drawn) [NCGC00472095-01] | 6.68 | 
COc1ccccc1N1CCN([C@H]2[C@@H]3OC[C@@H](O3)[C@@H](NCc3ccc(-c4ccccc4)cc3)[C@@H]2O)CC1 [NCGC00392675-01] | 15 | 
CCCOc1ccc(-c2nonc2NC(=O)c2cc(OC)c(OC)c(OC)c2)cc1OCCC [NCGC00116043-01] | 5.96 | 
COc1ccc2cc1Nc1ccc(cc1)C[C@H](NC(=O)Cc1cccc(Cl)c1)C(=O)N(C)[C@H](C(=O)NCCOc1ccccc1)C2 [NCGC00410283-01] | 7.5 | 
CCN(CC)CC(O)COc1ccccc1C(=O)CCc1ccccc1 (stereo not drawn) [MLS000107538-01] | 1.5 | 
CCC(=O)N1CCc2cc(Br)cc(S(=O)(=O)C3(C(=O)OC)CC3)c21 [MLS000047144-01] | 3.76 | 
COc1ccc(NC(=O)c2ccc(-c3nnc4ccc(NC(=O)C5CC5)cn34)cc2)cc1 [NCGC00429845-01] | 2.66 | 
CCCCCCC(O)(c1ccc(OC)cc1)C(CN1CCOCC1)c1ccccc1 (stereo not drawn) [MLS001198921-01] | 4.22 | 
COc1ccccc1NC(=O)CSc1nc2c(oc3ccccc32)c(=O)n1-c1ccc(C)cc1 [NCGC00112704-01] | 15 | 
CNC(=O)c1cc(-c2ccnc(N3CCOCC3)c2)cc2c1OCCN2Cc1cccnc1 [NCGC00417111-01] | 8.41 | 
O=C(NC1CC1)C1CCN(S(=O)(=O)c2ccc(Cl)cc2)CC1 [MLS001220436-01] | 13.3 | 
COc1ccc(NC(=O)c2c(C)oc3ccc(O)c(CN4CCN(Cc5ccccc5)CC4)c23)cc1 [NCGC00115648-01] | 2.66 | 
CCC(C(=O)NCCn1ccn2nc(-c3ccc(OC)cc3)cc2c1=O)c1ccccc1 (stereo not drawn) [NCGC00456905-01] | 15 | 
Cc1nnc2c(N3CCN(c4ccccc4)CC3)nc3ccc(C(=O)c4ccccc4)cc3n12 [NCGC00107547-01] | 0.841 | 
CCCn1c(C)cnc1CC1CCN([S+](=O)([O-])c2ccc3c(c2)CCC3)C1 (stereo not drawn) [NCGC00464176-01] | 9.44 | 
Cc1ccccc1OCCSc1nc2ccc(NC(=O)c3cccs3)cc2s1 [NCGC00118502-01] | 5.31 | 
CC1=C[C@@H](CNCCN(C)C)[C@H](C(C)C)C[C@H]1Cc1nnc(C(C)(C)C)o1 [NCGC00401821-01] | 15.3 | 
CN(C)c1cccc(Nc2cc3c(cn2)CN(Cc2ccccc2)CCN3)c1 [NCGC00411230-01] | 13.7 | 
O=c1cc(-c2ccccc2)c2ccc3c(c2o1)CN(Cc1ccccc1)CO3 [NCGC00116340-01] | 2.66 | 
O=C(NC1=C(Nc2ccc(F)cc2)C(=O)c2ccccc2C1=O)c1ccc(Cl)cc1 [MLS000375026-01] | 0.841 | 
CCOc1cc(C(=O)N2CCc3c([nH]c4ccccc34)C2c2ccccc2)cc(OCC)c1OCC (stereo not drawn) [NCGC00134525-01] | 7.5 | 
O=C(NCc1ccccc1)c1ccccc1OC1CN(Cc2ccc(O)c(F)c2)C1 [NCGC00458090-01] | 15 | 
CCOc1ccc2c(c1)OC(c1ccc(C)cc1)(C(F)(F)F)NC2=O (stereo not drawn) [MLS000392832-01] | 2.66 | 
CCOC(=O)COn1c(-n2nc(C)cc2C)nc2ccccc2c1=O [MLS001215150-01] | 9.44 | 
O=C(c1cccc(O)c1)N1CC=C(c2cnc3cnc(-c4ccccc4)cn23)CC1 [NCGC00414040-01] | 9.68 | 
O=C(NCCc1c[nH]c2ccccc12)C(=O)Nc1cc2c3c(c1)CC(=O)N3CCC2 [MLS001361834-01] | 10.6 | 
